# Experimental data published in ChEMBL document CHEMBL3045619, “Antitermite activity of 7-alkoxycoumarins and related analogs against Coptotermes formosanus Shiraki” (2012).
# System: Coptotermes formosanus
# Assay: Termiticidal activity against Coptotermes formosanus assessed as mortality at 5 uM up to 14 days by no choice test relative to control
# Assay type: functional
# Conditions: 336 h
row,SMILES,mortality at 5 µM [%]
1,COc1ccc(COc2ccc3ccc(=O)oc3c2)cc1,41.4
2,CC#CCOc1ccc2ccc(=O)oc2c1 [7-(2-BUTYNYLOXY)COUMARIN],51.5
3,CCCCCC#CCOc1ccc2ccc(=O)oc2c1 [7-(2-OCTYNYLOXY)COUMARIN],28.3
4,CCC#CCOc1ccc2ccc(=O)oc2c1 [7-(2-PENTYNYLOXY)COUMARIN],32.3
5,"COc1cc(COc2ccc3ccc(=O)oc3c2)cc(OC)c1 [7-(3,5-DIMETHOXYBENZYLOXY)COUMARIN]",32.3
6,O=c1ccc2ccc(OCCCc3ccccc3)cc2o1 [7-(3-PHENYLPROPOXY)COUMARIN],16.2
7,O=c1ccc2ccc(Oc3ccc([N+](=O)[O-])cc3)cc2o1 [7-(4-NITROPHENOXY)COUMARIN],62.6
8,C=CCOc1ccc2ccc(=O)oc2c1 [7-ALLYLOXYCOUMARIN],38.4
9,O=c1ccc2ccc(OCc3ccccc3)cc2o1 [7-BENZYLOXYCOUMARIN],23.2
10,CCCCOc1ccc2ccc(=O)oc2c1 [7-BUTOXYCOUMARIN],19.2
11,O=C(/C=C/c1ccccc1)Oc1ccc2ccc(=O)oc2c1 [7-CINNAMOYLOXYCOUMARIN],12.1
12,O=c1ccc2ccc(OC3CCCCC3)cc2o1 [7-CYCLOHEXYLOXYCOUMARIN],65.7
13,CCCCCCCCCCCCOc1ccc2ccc(=O)oc2c1 [7-DODECYLOXYCOUMARIN],19.2
14,CCCCCCCCCCCCCCCCOc1ccc2ccc(=O)oc2c1 [7-HEXADECYLOXYCOUMARIN],3
15,CC(C)COc1ccc2ccc(=O)oc2c1 [7-ISOBUTOXYCOUMARIN],9.1
16,CC(C)Oc1ccc2ccc(=O)oc2c1 [7-ISOPROPOXYCOUMARIN],13.1
17,CCCCCCCCCCCCCCCCCCOc1ccc2ccc(=O)oc2c1 [7-OCTADECYLOXYCOUMARIN],8.1
18,CCCCCCCCOc1ccc2ccc(=O)oc2c1 [7-OCTYLOXYCOUMARIN],17.2
19,O=c1ccc2ccc(OCCc3ccccc3)cc2o1 [7-PHENETHOXYCOUMARIN],10.1
20,CCCOc1ccc2ccc(=O)oc2c1 [7-PROPOXYCOUMARIN],16.2
21,C/C=C/COc1ccc2ccc(=O)oc2c1 [(E)-7-(2-BUTENYLOXY)COUMARIN],33.3
22,CCOc1ccc2ccc(=O)oc2c1 [ETHOXYCOUMARIN],14.1
23,COc1ccc2ccc(=O)oc2c1 [HERNIARIN],13.1
